Source: patent US11760733B2, “Small molecule regulators of mitochondrial fusion and methods of use thereof” (Washington University, priority 2017, dated 2023)

Assays:
Mfn2 null MEFs = assay: Mitochondrial elongation (aspect ratio) fusogenicity assay; type: cell-based, mouse
Text: A cultured murine embryonic fibroblast assay system was used in which mitochondrial elongation (an increase in aspect ratio) reflects enhanced mitochondrial fusion.
A pharmacophore model was generated based on the interactions of HR1 and HR2 domains in the calculated structural model of Mfn2 in the closed conformation. The key features included hydrophobic interactions involving Mfn2 HR1: Val372 and Met376, and aromatic interactions and hydrogen bonding involving Mfn2 HR1 His380. […] A library comprising ˜14 million commercially available compounds was prepared in silico and evaluated using PHASE to fit these criteria. Top ranked hits were clustered, and filtered based on pharmacological properties using Qikprop. The top 55 (see TABLE 4) commercially available small molecules conforming to the model were selected for functional screening and purchased in 1 mg aliquots. Each compound was dissolved to a stock concentration of 10 mM in DMSO and applied to Mfn2 null MEFs overnight at a final concentration of 1 mM. […] Images were acquired by confocal microscopy. Each compound was scored for fusogenicity (see e.g., FIG. 24A) and % cell death (see e.g., FIG. 24B).
Wild-type MEFs were prepared from E10.5 c57/bl6 mouse embryos. […] MEFs were subcultured in DMEM (4.5 g/L glucose) plus 10% fetal bovine serum, 1× nonessential amino acids, 2 mM L-glutamine, 100U/ml penicillin and 100 ug/ml streptomycin.
Cells were excited with 408 nm (Hoechst), […] (MitoTracker Green and Calcein AM, GFP), or 637 nm (TMRE, MitoTracker Orange, Ethidium homodimer-1, and AF594-Dextran) laser diodes. For mitochondrial elongation studies mitochondrial aspect ratio (long axis/short axis) was calculated using automated edge detection and Image J software. Mitochondrial depolarization was calculated as % of green mitochondria visualized on MitoTracker Green and TMRE merged images, expressed as green/(green+yellow mitochondria)×100.

[1] = system: MEFs expressing CMT2A mutant MFN2; assay: Mitochondrial dysmorphology in MEFs expressing MFN2 mutants; type: cell-based, mouse; conditions: MFN2 T105M in MEFs
Procedure: Fusogenic activity of commercially available small-molecule candidate pharmacophores (TABLE 4), focusing on those having structures that mimicked Ser^378-phosphorylated (class A) and -unphosphorylated (class B) minipeptide amino acid side chains were assessed (see e.g., FIG. 5, TABLE 5). It was reasoned that simultaneous application of class A and B agonists could enhance mitofusin by acting on both MFN2 Ser^378 phosphorylation states. […] Therefore, Cpd A and B functionality were assimilated into a single molecule by creating Cpd A-B chimeras (see e.g., FIG. 11, FIG. 7, TABLE 6). […] On the basis of fluorescence resonance energy transfer (FRET) analysis of MFN2 labeled at the N and C termini, mitofusin agonists promoted an open MFN2 conformation favoring mitochondrial fusion, with a rank order paralleling that for HR2 binding and mitochondrial fusion (see e.g., FIG. 11G; compare to FIG. 11B and FIG. 11C), supporting allosteric activation. […]
Cells were excited with 408 nm (Hoechst), […] (MitoTracker Green and Calcein AM, GFP), or 637 nm (TMRE, MitoTracker Orange, Ethidium homodimer-1, and AF594-Dextran) laser diodes. For mitochondrial elongation studies mitochondrial aspect ratio (long axis/short axis) was calculated using automated edge detection and Image J software. […]

[2] = system: cultured neurons expressing MFN2 T105M or MFN2 R94Q; assay: Cultured mouse neurons expressing CMT2A MFN2 mutants; type: cell-based
Procedure: Neonatal mouse hippocampal neurons were cultured from brains of one day old Mfn2 T105M or non-transgenic sibling mouse pups as described. After 10 days of differentiating culture neurons were infected with Adeno-Cre to induce Mfn2 T105M expression or Adeno-βgal as a control (50 MOI). After an additional 72 hours mitofusin agonists or DMSO vehicle were added. For static confocal imaging neuronal mitochondria were labeled with adenoviral-expressed mitoGFP plus TMRE. Autophagy was measured by LC3 aggregation in neurons infected with adenoviral LC3-GFP. For time-lapse studies of mitochondrial trafficking bi-cistronic Adeno-Cre/GFP marked Cre expression and mitochondria were labeled with adeno-mitoDsRed. Confocal live cell images were acquired with a time-lapse of 1 frame every 90 seconds for 1 hour.

Structure (SMILES): CC1CCCCC1NC(=O)NCCSc1nnc(C2CC2)n1-c1ccccc1 (racemic) [B-A/I, 1-(2-((5-cyclopropyl-4-phenyl-4H-1,2,4-triazol-3-yl)thio)ethyl)-3-(2-methylcyclohexyl)urea]
- fusogenic activity (mitochondrial elongation), in words (Mfn2 null MEFs): potently stimulated mitochondrial fusion
- reversal of mitochondrial dysmorphology [1]: as effective as the combination of Cpds A+B
- mitochondrial fragmentation/dysmorphology, hypopolarization, autophagy in neurons ([2]; MFN2 R94Q or T105M): concomitantly corrected
- mitochondrial clumping and motility in neurons ([2]; MFN2 T105M): restored mitochondrial motility
